Reference: patent US9469617B2, “Molecules having certain pesticidal utilities, and intermediates, compositions, and processes related thereto” (priority 2014, dated 2016)
Where two headings read alike, the source gives them in different places.

How the values were obtained:
Type in all cases: in vivo
[1] = system: Cabbage Looper (CL) (Trichoplusia ni); test: Bioassay on Cabbage Looper (CL), 128-well diet tray assay; details: 168 h, 50 μg/cm^2 on artificial diet, second instar larvae, five to seven days, 25° C., read-out: CL % Control (or Mortality) rating
Procedure: (§1) Certain molecules disclosed in this document were tested against BAW and CL using procedures described in the following examples. In the reporting of the results, the “BAW & CL Rating Table” was used (See Table Section).
Bioassays on CL were conducted using a 128-well diet tray assay. One to five second instar CL larvae were placed in each well (3 mL) of the diet tray that had been previously filled with 1 mL of artificial diet to which 50 μg/cm^2 of the test compound (dissolved in 50 μL of 90:10 acetone-water mixture) had been applied (to each of eight wells) and then allowed to dry. Trays were covered with a clear self-adhesive cover, and held at 25° C., 14:10 light-dark for five to seven days. Percent mortality was recorded for the larvae in each well; activity in the eight wells was then averaged. The results are indicated in the table entitled “Table ABC: Assay Results” and “Table ABCD: Assay Results” (See Table Section).

[2] = system: Yellow Fever Mosquito (YFM) (Aedes aegypti); test: Bioassay on Yellow Fever Mosquito (YFM) larvae, 96-well plate; details: about 1 day-old larvae, master plate 4000 ppm in DMSO diluted, scored on mortality after 3 days
Procedure: Certain molecules disclosed in this document were tested against YFM using procedures described in the following paragraph. In the reporting of the results, the “GPA & YFM Rating Table” was used (See Table Section).
Master plates containing 400 μg of a molecule dissolved in 100 μL of dimethyl sulfoxide (DMSO) (equivalent to a 4000 ppm solution) are used. A master plate of assembled molecules contains 15 μL per well. To this plate, 135 μL of a 90:10 water:acetone mixture is added to each well. A robot (Biomek® NXP Laboratory Automation Workstation) is programmed to dispense 15 μL aspirations from the master plate into an empty 96-well shallow plate (“daughter” plate). There are 6 reps (“daughter” plates) created per master. The created daughter plates are then immediately infested with YFM larvae.
The day before plates are to be treated, mosquito eggs are placed in Millipore water containing liver powder to begin hatching (4 g. into 400 mL). After the daughter plates are created using the robot, they are infested with 220 μL of the liver powder/larval mosquito mixture (about 1 day-old larvae). After plates are infested with mosquito larvae, a non-evaporative lid is used to cover the plate to reduce drying. Plates are held at room temperature for 3 days prior to grading. After 3 days, each well is observed and scored based on mortality.

[3] = system: Beet Armyworm (BAW) (Spodoptera exigua); test: Bioassay on Beet Armyworm (BAW), 128-well diet tray assay; details: 168 h, 50 μg/cm^2 on artificial diet, second instar larvae, five to seven days, 25° C., read-out: BAW % Control (or Mortality) rating
Procedure: as §1
Bioassays on BAW were conducted using a 128-well diet tray assay. one to five second instar BAW larvae were placed in each well (3 mL) of the diet tray that had been previously filled with 1 mL of artificial diet to which 50 μg/cm^2 of the test compound (dissolved in 50 μL of 90:10 acetone-water mixture) had been applied (to each of eight wells) and then allowed to dry. Trays were covered with a clear self-adhesive cover, and held at 25° C., 14:10 light-dark for five to seven days. Percent mortality was recorded for the larvae in each well; activity in the eight wells was then averaged. The results are indicated in the tables entitled “Table ABC: Assay Results” and “Table ABCD: Assay Results” (See Table Section).

Cc1ccc(Cl)c(NC(=S)NC(=O)NC2CCc3cc(-c4ncn(-c5ccc(OC(F)(F)F)cc5)n4)ccc3C2)c1 (stereo not drawn) [P30, 1-[(2-Chloro-5-methyl-phenyl)carbamothioyl]-3-[6-[1-[4-(trifluoromethoxy)phenyl]-1,2,4-triazol-3-yl]tetralin-2-yl]urea]
mortality at 50 µg/cm2 ([1]; Table ABC): 50 to 100%
YFM % Control (or Mortality) rating ([2]; Table ABC): A (80-100)
mortality at 50 µg/cm2 ([3]; Table ABC): 50 to 100%

Cc1ccc(C(C)C)c(N2CCCS/C2=N\C(=O)NC2Cc3ccc(-c4ncn(-c5ccc(OC(F)(F)F)cc5)n4)cc3C2)c1 (stereo not drawn) [P20, (Z)-1-(3-(2-Isopropyl-5-methylphenyl)-1,3-thiazinan-2-ylidene)-3-(5-(1-(4-(trifluoromethoxy)phenyl)-1H-1,2,4-triazol-3-yl)-2,3-dihydro-1H-inden-2-yl)urea]
mortality at 50 µg/cm2 ([1]; Table ABC): 50 to 100%
YFM % Control (or Mortality) rating ([2]; Table ABC): A (80-100)
mortality at 50 µg/cm2 ([3]; Table ABC): 50 to 100%

Cc1ccc(C(C)C)c(N2CC(C)CS/C2=N\C(=O)NC2Cc3ccc(-c4ncn(-c5ccc(OC(F)(F)F)cc5)n4)cc3C2)c1 (stereo not drawn) [P18, (Z)-1-(3-(2-isopropyl-5-methylphenyl)-5-methyl-1,3-thiazinan-2-ylidene)-3-(5-(1-(4-(trifluoromethoxy)phenyl)-1H-1,2,4-triazol-3-yl)-2,3-dihydro-1H-inden-2-yl)urea]
mortality at 50 µg/cm2 ([1]; Table ABC): 50 to 100%
YFM % Control (or Mortality) rating ([2]; Table ABC): A (80-100)
mortality at 50 µg/cm2 ([3]; Table ABC): 50 to 100%

CCc1cccc(C)c1NC(=S)NC(=O)NC1CCc2cc(-c3ncn(-c4ccc(OC(F)(F)F)cc4)n3)ccc2C1 (stereo not drawn) [P29, 1-[(2-Ethyl-6-methyl-phenyl)carbamothioyl]-3-[6-[1-[4-(trifluoromethoxy)phenyl]-1,2,4-triazol-3-yl]tetralin-2-yl]urea]
mortality at 50 µg/cm2 ([1]; Table ABC): 50 to 100%
YFM % Control (or Mortality) rating ([2]; Table ABC): A (80-100)
mortality at 50 µg/cm2 ([3]; Table ABC): 50 to 100%

COc1ccc(NC(=S)NC(=O)NC2CCc3cc(-c4ncn(-c5ccc(OC(F)(F)F)cc5)n4)ccc3C2)c(C)c1 (stereo not drawn) [P28, 1-[(4-Methoxy-2-methyl-phenyl)carbamothioyl]-3-[6-[1-[4-(trifluoromethoxy)phenyl]-1,2,4-triazol-3-yl]tetralin-2-yl]urea]
mortality at 50 µg/cm2 ([1]; Table ABC): 50 to 100%
YFM % Control (or Mortality) rating ([2]; Table ABC): A (80-100)
mortality at 50 µg/cm2 ([3]; Table ABC): 50 to 100%

CC(C)c1ccc(Cl)cc1N1C(=O)CS/C1=N\C(=O)NC1Cc2ccc(-c3ncn(-c4ccc(OC(F)(F)F)cc4)n3)cc2C1 (stereo not drawn) [P8, (Z)-1-(3-(5-Chloro-2-isopropylphenyl)-4-oxothiazolidin-2-ylidene)-3-(5-(1-(4-(trifluoromethoxy)phenyl)-1H-1,2,4-triazol-3-yl)-2,3-dihydro-1H-inden-2-yl)urea]
mortality at 50 µg/cm2 ([1]; Table ABC): 50 to 100%
YFM % Control (or Mortality) rating ([2]; Table ABC): A (80-100)
mortality at 50 µg/cm2 ([3]; Table ABC): 50 to 100%

CC(C)c1cc(F)ccc1N1C(=O)CS/C1=N\C(=O)NC1Cc2ccc(-c3ncn(-c4ccc(OC(F)(F)F)cc4)n3)cc2C1 (stereo not drawn) [P10, (Z)-1-(3-(4-Fluoro-2-isopropylphenyl)-4-oxothiazolidin-2-ylidene)-3-(5-(1-(4-(trifluoromethoxy)phenyl)-1H-1,2,4-triazol-3-yl)-2,3-dihydro-1H-inden-2-yl)urea]
mortality at 50 µg/cm2 ([1]; Table ABC): 50 to 100%
YFM % Control (or Mortality) rating ([2]; Table ABC): A (80-100)
mortality at 50 µg/cm2 ([3]; Table ABC): 50 to 100%

Cc1ccc(C)c(NC(=S)NC(=O)NC2CCc3cc(-c4ncn(-c5ccc(OC(F)(F)F)cc5)n4)ccc3C2)c1 (stereo not drawn) [P25, 1-[(2,5-Dimethylphenyl)carbamothioyl]-3-[6-[1-[4-(trifluoromethoxy)phenyl]-1,2,4-triazol-3-yl]tetralin-2-yl]urea]
mortality at 50 µg/cm2 ([1]; Table ABC): 50 to 100%
YFM % Control (or Mortality) rating ([2]; Table ABC): A (80-100)
mortality at 50 µg/cm2 ([3]; Table ABC): 50 to 100%

Cc1ccc(C(C)C)c(-n2c(C)cs/c2=N\C(=O)NC2Cc3ccc(-c4ncn(-c5ccc(OC(F)(F)F)cc5)n4)cc3C2)c1 (stereo not drawn) [P12, (Z)-1-(3-(2-Isopropyl-5-methylphenyl)-4-methylthiazol-2(3H)-ylidene)-3-(5-(1-(4-(trifluoromethoxy)phenyl)-1H-1,2,4-triazol-3-yl)-2,3-dihydro-1H-inden-2-yl)urea]
mortality at 50 µg/cm2 ([1]; Table ABC): 50 to 100%
YFM % Control (or Mortality) rating ([2]; Table ABC): A (80-100)
mortality at 50 µg/cm2 ([3]; Table ABC): 50 to 100%

Cc1ccc(N2C(=O)CS/C2=N\C(=O)NC2Cc3ccc(-c4ncn(-c5ccc(OC(F)(F)F)cc5)n4)cc3C2)c(C(C)C)c1 (stereo not drawn) [P7, (Z)-1-(3-(2-Isopropyl-4-methylphenyl)-4-oxothiazolidin-2-ylidene)-3-(5-(1-(4-(trifluoromethoxy)phenyl)-1H-1,2,4-triazol-3-yl)-2,3-dihydro-1H-inden-2-yl)urea]
mortality at 50 µg/cm2 ([1]; Table ABC): 50 to 100%
YFM % Control (or Mortality) rating ([2]; Table ABC): A (80-100)
mortality at 50 µg/cm2 ([3]; Table ABC): 50 to 100%

CC(C)c1ccccc1N1/C(=N/C(=O)NC2Cc3ccc(-c4ncn(-c5ccc(OC(F)(F)F)cc5)n4)cc3C2)SCC1C (stereo not drawn) [FA3, (Z)-1-(3-(2-isopropylphenyl)-4-methylthiazolidin-2-ylidene)-3-(5-(1-(4-(trifluoromethoxy)phenyl)-1H-1,2,4-triazol-3-yl)-2,3-dihydro-1H-inden-2-yl)urea]
mortality at 50 µg/cm2 ([1]; Table ABC): 0%
YFM % Control (or Mortality) rating ([2]; Table ABC): B (More than 0-Less than 80)
mortality at 50 µg/cm2 ([3]; Table ABC): 50 to 100%

Cc1ccc(C)c(N2C(=O)CS/C2=N\C(=O)NC2CCc3cc(-c4ncn(-c5ccc(OC(F)(F)F)cc5)n4)ccc3C2)c1 (stereo not drawn) [P32, (Z)-1-(3-(2,5-Dimethylphenyl)-4-oxothiazolidin-2-ylidene)-3-(6-(1-(4-(trifluoromethoxy)phenyl)-1H-1,2,4-triazol-3-yl)-1,2,3,4-tetrahydronaphthalen-2-yl)urea]
mortality at 50 µg/cm2 ([1]; Table ABC): 50 to 100%
YFM % Control (or Mortality) rating ([2]; Table ABC): B (More than 0-Less than 80)
mortality at 50 µg/cm2 ([3]; Table ABC): 50 to 100%

CC(C)c1ccccc1NC(=S)NC(=O)NC1CCc2cc(-c3ncn(-c4ccc(OC(F)(F)F)cc4)n3)ccc2C1 (stereo not drawn) [P22, 1-[(2-Isopropylphenyl)carbamothioyl]-3-[6-[1-[4-(trifluoromethoxy)phenyl]-1,2,4-triazol-3-yl]tetralin-2-yl]urea]
mortality at 50 µg/cm2 ([1]; Table ABC): 50 to 100%
YFM % Control (or Mortality) rating ([2]; Table ABC): A (80-100)
mortality at 50 µg/cm2 ([3]; Table ABC): 50 to 100%

Cc1ccc(C(C)C)c(NC(=S)NC(=O)NC2CCc3cc(-c4ncn(-c5ccc(OC(F)(F)F)cc5)n4)ccc3C2)c1 (stereo not drawn) [P21, 1-[(2-Isopropyl-5-methyl-phenyl)carbamothioyl]-3-[6-[1-[4-(trifluoromethoxy)phenyl]-1,2,4-triazol-3-yl]tetralin-2-yl]urea]
mortality at 50 µg/cm2 ([1]; Table ABC): 50 to 100%
YFM % Control (or Mortality) rating ([2]; Table ABC): A (80-100)
mortality at 50 µg/cm2 ([3]; Table ABC): 50 to 100%

CC(C)c1ccc(Cl)cc1NC(=S)NC(=O)NC1Cc2ccc(-c3ncn(-c4ccc(OC(F)(F)F)cc4)n3)cc2C1 (stereo not drawn) [P3, 1-[(5-Chloro-2-isopropyl-phenyl)carbamothioyl]-3-[5-[1-[4-(trifluoromethoxy)phenyl]-1,2,4-triazol-3-yl]indan-2-yl]urea]
mortality at 50 µg/cm2 ([1]; Table ABC): 50 to 100%
YFM % Control (or Mortality) rating ([2]; Table ABC): A (80-100)
mortality at 50 µg/cm2 ([3]; Table ABC): 50 to 100%

COc1ccc(C)cc1NC(=S)NC(=O)NC1CCc2cc(-c3ncn(-c4ccc(OC(F)(F)F)cc4)n3)ccc2C1 (stereo not drawn) [P31, 1-[(2-Methoxy-5-methyl-phenyl)carbamothioyl]-3-[6-[1-[4-(trifluoromethoxy)phenyl]-1,2,4-triazol-3-yl]tetralin-2-yl]urea]
mortality at 50 µg/cm2 ([1]; Table ABC): 50 to 100%
YFM % Control (or Mortality) rating ([2]; Table ABC): A (80-100)
mortality at 50 µg/cm2 ([3]; Table ABC): 50 to 100%

Cc1ccc(C(C)C)c(N2C(=N)SCC2=O)c1 [C29, 2-imino-3-(2-isopropyl-5-methylphenyl)thiazolidin-4-one]
mortality at 50 µg/cm2 ([1]; Table ABCD): 50 to 100%
YFM % Control (or Mortality) rating ([2]; Table ABCD): B (More than 0-Less than 80)
mortality at 50 µg/cm2 ([3]; Table ABCD): 0 to 50%
